Blank lines part the entries; values can stand above or below the compound they belong to.
Tests used:
[1] = prior art statement; cited from earlier work
[2] = test system: Japanese White male rabbits; test: Intraocular pressure reduction and conjunctival hyperemia (Example 5, Table 1 (1)-(6)); type: in vivo; details: intraocular pressure reduction (%), topical
Description: (§1) For the purpose of tonometry, Japanese White male rabbits (2.5-3.0 Kg) were fixed on braces. After topical anesthetization with 0.4% oxybuprocaine hydrochloride, intraocular pressure was measured using a pheumatic applanation tonometer (manufactured by Japan Alcon). After the topical application of 50 μl of the suspensions of the test drugs in a physiological saline to one eye, the intraocular pressure was measured and the intraocular pressure reduction (%) caused by each test drug was calculated. At the same time, the extent of conjunctival hyperemia was observed.

[3] = test system: Japanese White male rabbits; test: as above; type: in vivo; design: key: −: none; +−: barely visible hyperemia; +: slight hyperemia; ++: moderate hyperemia; +++: severe hyperemia; +++*: *: lid-closing and severe hyperemia are observed; details: extent of conjunctival hyperemia; topical, dose 100 μg/eye
Description: as §1

[4] = test system: Japanese White male rabbits; test: as above; type: in vivo; design: key: −: scarcely observed; ±: extremely weak hyperemia; +: slight hyperemia; ++: pronounced hyperemia; +++: severe hyperemia; +++*: *: Lid closure and lacrimation were observed; details: extent of conjunctival hyperemia, topical
Description: as §1

[5] = test system: Japanese White male rabbits; test: Change in intraocular pressure with time after application (Example 4, FIG. 1); type: in vivo; details: topical 25 μg/eye, every 1 hr until 6 hr, 6 rabbits per group
Description: FIG. 1 is a graph showing change in intraocular pressure with time after application of prostaglandins E2 to rabbits, wherein applied drugs were as follows:
For the purpose of tonometry, Japanese White male rabbits (2.5-3.0 Kg) were fixed on braces, and after topical anesthetization with 0.4% oxybuprocaine hydrochloride, intraocular pressure was measured using a pheumatic applanation tonometer (manufactured by Japan Alcon K.K.).
The test drugs were suspended in a physiological saline. A 50 μl aliquot […] of the suspension (25 μg/eye of the test drug) was topically applied to one eye. The contralateral control eye received physiological saline. Intraocular pressure was measured at every 1 hr, until 6 hr, after topical application. In this experiment, 6 rabbits per group were used, and the mean values of intraocular pressure of the treated eye at each time were calculated.

- Hyperemia [3]: +
Structure (SMILES): CCCCCC(=O)CCC1C=CC(=O)C1C/C=C\CCCC(=O)OCC (stereo not shown) [Test Drug (3), 13,14-dihydro-15-keto-PGA2 ethyl ester]
- Percent change of IOP ([2]; dose 100 μg/eye): 24%

- Hyperemia ([4]; dose 50 μg/eye): −
Structure (SMILES): CCCCCCCC(=O)CCC1C=CC(=O)C1C/C=C\CCCC(=O)OC(C)C (stereo not shown) [Test Drug (8), 13,14-dihydro-15-keto-20-ethyl-PGA2 isopropyl ester]
- Percent change of IOP ([2]; dose 50 μg/eye): 27%

- Hyperemia ([4]; dose 250 μg/eye): ±
Structure (SMILES): CCCCCC(=O)CCC1C(=O)CC(O)C1C/C=C\CCCC(=O)OCC (stereo not shown) [Test Drug (30), 13,14-dihydro-15-keto-PGD2 ethyl ester]
- Percent change of IOP ([2]; dose 250 μg/eye): 20%

- Hyperemia [3]: +
Structure (SMILES): CCCCC(F)C(=O)CCC1C(=O)CC(O)C1C/C=C\CCCC(=O)OC (stereo not shown) [Test Drug (35), 13,14-dihydro-15-keto-16R,S-fluoro-PGD2 methyl ester]
- Percent change of IOP ([2]; dose 100 μg/eye): 13%

- Hyperemia ([4]; dose 250 μg/eye): ±
Structure (SMILES): CCCCCCCCC(=O)CCC1C(O)CC(O)C1C/C=C\CCCC(=O)OC (stereo not drawn) [Test Drug (90), 13,14-dihydro-15-keto-20-n-propyl-PGF2^α methyl ester]
- Percent change of IOP ([2]; dose 250 μg/eye): 25%

The next lines start with the compound.

Structure (SMILES): CCCCCC(=O)/C=C/[C@@H]1[C@@H](C/C=C\CCCC(=O)O)[C@@H](O)C[C@H]1O [15-keto-PGF2]
- Ocular hypotensive activity (in words) [1]: a very little

Structure (SMILES): CCCCC[C@H](O)/C=C/[C@@H]1[C@@H](C/C=C\CCCC(=O)O)[C@@H](O)C[C@H]1O [PGF2]
- Ocular hypotensive activity (in words) [1]: high ocular hypotensive activity

Structure (SMILES): CCCCCC(=O)CCC1C(=O)CC(O)C1CC#CCCCC(=O)OC (stereo not drawn) [Test Drug (34), 13,14-dihydro-15-keto-5,6-dehydro-9β-PGD2 methyl ester]
- Hyperemia ([4]; dose 250 μg/eye): ±
- Percent change of IOP ([2]; dose 250 μg/eye): 23%

Structure (SMILES): CCCCCC(=O)CC[C@H]1[C@H](O)CC(=O)[C@@H]1C/C=C\CCCC(=O)O [Test Drug (56), 13,14-dihydro-15-keto-PGE2]
- Intraocular pressure response (in words) [5]: ocular hypotensive potency without transient ocular hypertensive response

Structure (SMILES): CCCCC[C@H](O)/C=C/[C@H]1[C@H](O)CC(=O)[C@@H]1C/C=C\CCCC(=O)O [Test Drug (73), PGE2, reference compound]
- Intraocular pressure response (in words) [5]: transient ocular hypertensive response
